Converted amounts (≈) assume the structure as drawn.
Tests used:
Streptococcus agalactiae = assay: In vitro Minimum inhibitory concentration against Streptococcus agalactiae CMX 508; type: functional
[1] = Compound was evaluated for the solubility in Ringer's buffer solution; type: ADME; settings: Ringer's buffer solution; read-out: Solubility
[2] = Partition coefficient (logP); type: physicochemical; settings: octanol/water
Streptococcus pyogenes = assay: In vitro Minimum inhibitory concentration against Streptococcus pyogenes 930; type: functional
Pseudomonas aeruginosa [3] = assay: In vitro Minimum inhibitory concentration against Pseudomonas aeruginosa K799/WT; type: functional
Staphylococcus aureus [4] = assay: In vitro Minimum inhibitory concentration against Staphylococcus aureus ATCC 6538P; type: functional
Enterococcus faecium = assay: In vitro Minimum inhibitory concentration against Streptococcus faecium ATCC 8043; type: functional
Klebsiella pneumoniae [5] = assay: In vitro Minimum inhibitory concentration against Klebsiella pneumoniae 8045
Escherichia coli [6] = assay: In vitro Minimum inhibitory concentration against Escherichia coli Juhl; type: functional
Pseudomonas aeruginosa [7] = assay: In vitro Minimum inhibitory concentration against Pseudomonas aeruginosa 5007; type: functional
Staphylococcus aureus [8] = assay: In vitro Minimum inhibitory concentration against Staphylococcus aureus 45; type: functional
Staphylococcus aureus [9] = assay: In vitro Minimum inhibitory concentration against Staphylococcus aureus A5177; type: functional
[10] = test system: Staphylococcus epidermidis; assay: In vitro Minimum inhibitory concentration against Staphylococcus epidermidis 3519; type: functional
Streptococcus equinus = assay: In vitro Minimum inhibitory concentration against Streptococcus bovis A5169; type: functional
Staphylococcus aureus [11] = assay: In vitro Minimum inhibitory concentration against Staphylococcus aureus CMX 686B; type: functional
[12] = Blood level was evaluated by a disk agar diffusion assay at 3.0 hh when administered at a peroral dose of 100 mg/kg; type: ADME, organism-based; design: dose 100 mg/kg, route oral; settings: mouse, po, read-out: Blood level
Klebsiella pneumoniae [13] = assay: In vitro Minimum inhibitory concentration against Klebsiella pneumoniae 8045; type: functional
Acinetobacter [14] = assay: In vitro Minimum inhibitory concentration against Acinetobacter CMX 669; type: functional
Acinetobacter [15] = assay: In vitro Minimum inhibitory concentration against Acinetobacter CMX 669
Mus musculus [16] = assay: Blood level was evaluated by a disk agar diffusion assay at 0.5 hr when administered at a peroral dose of 25 mg/kg; type: functional; settings: route oral
Mus musculus [17] = assay: In vivo efficacy against Escherichia coli Juhl, in mouse protection test when the administered perorally (po); type: functional
Mus musculus [18] = assay: In vivo efficacy against Staphylococcus aureus 10649, in mouse protection test when administered subcutaneously (sc); type: functional
Escherichia coli [19] = assay: Supercoiling inhibition assay using purified DNA gyrase isolated from Escherichia coli H560; type: functional; settings: read-out: I50
Mus musculus [20] = assay: In vivo efficacy against Staphylococcus aureus 10649, in mouse protection test when administered perorally (po); type: functional
Mus musculus [21] = assay: Blood level was evaluated at 2.0 hr when administered at a peroral dose of 25 mg/kg; type: functional; settings: route oral
Mus musculus [22] = assay: Blood level was evaluated at 1.0 hr when administered at a peroral dose of 25 mg/kg; type: functional; settings: route oral
Mus musculus [23] = assay: Blood level was evaluated at 6.0 hr when administered at a peroral dose of 25 mg/kg; type: functional; settings: route oral
Mus musculus [24] = assay: In vivo efficacy against Escherichia coli Juhl, in mouse protection test when administered subcutaneously (sc); type: functional
Mus musculus [25] = assay: Blood level was evaluated at 24.0 hr when administered at a peroral dose of 25 mg/kg; type: functional; settings: route oral
Mus musculus [26] = assay: Blood level was evaluated at 3.0 hh when administered at a peroral dose of 25 mg/kg; type: functional; settings: route oral
Mus musculus [27] = assay: In vivo efficacy against Escherichia coli Juhl, in mouse protection tests. when administered perorally (po); type: functional

MIC (Streptococcus agalactiae) [µg/mL] | solubility [1] [µg/mL] | logP [2] | MIC (Streptococcus pyogenes) [µg/mL] | MIC (Pseudomonas aeruginosa [3]) [µg/mL] | MIC (Staphylococcus aureus [4]) [µg/mL] | MIC (Enterococcus faecium) [µg/mL] | MIC (Escherichia coli [6]) [µg/mL] | MIC (Pseudomonas aeruginosa [7]) [µg/mL] | MIC (Staphylococcus aureus [8]) [µg/mL] | MIC (Staphylococcus aureus [9]) [µg/mL] | MIC [10] [µg/mL] | MIC (Streptococcus equinus) [µg/mL] | MIC (Staphylococcus aureus [11]) [µg/mL] | MIC (Klebsiella pneumoniae [13]) [µg/mL] | MIC (Acinetobacter [14]; Acinetobacter, read-out: MIC) [µg/mL] | SMILES | ED50 (Mus musculus [18]) [mg/kg] | ED50 (Mus musculus [20]) [mg/kg] | ED50 (Mus musculus [24]) [mg/kg] | other results
25 (≈ 51.4 µM) | 680 (≈ 1400 µM) | -0.56 | 25 (≈ 51.4 µM) | 1.56 (≈ 3.21 µM) | 1.56 (≈ 3.21 µM) | 6.2 (≈ 12.7 µM) | 0.78 (≈ 1.6 µM) | 1.56 (≈ 3.21 µM) | 3.1 (≈ 6.37 µM) | 3.1 (≈ 6.37 µM) | 3.1 (≈ 6.37 µM) | 25 (≈ 51.4 µM) | 1.56 (≈ 3.21 µM) | – | – | N[C@H]1CC(CN2CCCC2)N(c2cc3c(cc2F)c(=O)c(C(=O)O)cn3-c2ccc(F)cc2F)C1 (stereo partly specified) | – | – | – | MIC (Klebsiella pneumoniae [5]): 0.39 µg/mL (≈ 0.802 µM)
0.2 (≈ 0.496 µM) | – | – | 0.2 (≈ 0.496 µM) | – | 0.05 (≈ 0.124 µM) | 0.2 (≈ 0.496 µM) | 0.05 (≈ 0.124 µM) | 1.56 (≈ 3.87 µM) | 0.1 (≈ 0.248 µM) | 0.1 (≈ 0.248 µM) | 0.1 (≈ 0.248 µM) | 0.78 (≈ 1.93 µM) | 0.05 (≈ 0.124 µM) | 0.05 (≈ 0.124 µM) | 0.1 (≈ 0.248 µM) | NC1CCN(c2cc3c(cc2F)c(=O)c(C(=O)O)cn3-c2ccc(F)cc2F)C1 (stereo unspecified) | – | – | – | concentration at 3 h [12]: 900 ng/mL; MIC (Acinetobacter [14]): 0.1 µg/mL (≈ 0.248 µM); MIC (Acinetobacter [15]): 0.1 µg/mL (≈ 0.248 µM)
0.2 (≈ 0.478 µM) | 150 (≈ 359 µM) | -0.2 | 0.2 (≈ 0.478 µM) | 0.78 (≈ 1.86 µM) | 0.02 (≈ 0.0478 µM) | 0.1 (≈ 0.239 µM) | 0.02 (≈ 0.0478 µM) | 0.78 (≈ 1.86 µM) | 0.05 (≈ 0.12 µM) | 0.05 (≈ 0.12 µM) | 0.05 (≈ 0.12 µM) | 0.2 (≈ 0.478 µM) | 0.02 (≈ 0.0478 µM) | 0.02 (≈ 0.0478 µM) | 0.1 (≈ 0.239 µM) | C[C@H]1C[C@H](N)CN1c1nc2c(cc1F)c(=O)c(C(=O)O)cn2-c1ccc(F)cc1F | 0.9 | > 2.5 | 0.6 | Blood level (Mus musculus [16]): 5.9 µg/mL; ED50 (Mus musculus [17]): 2.7 mg/kg; IC50 (Escherichia coli [19]): 0.6 µg/mL (≈ 1.43 µM); Blood level (Mus musculus [21]): 3.3 µg/mL; Blood level (Mus musculus [22]): 3.2 µg/mL; Blood level (Mus musculus [23]): 1.3 µg/mL; Blood level (Mus musculus [25]): 0.2 µg/mL; Blood level (Mus musculus [26]): 2.8 µg/mL
0.1 (≈ 0.232 µM) | – | – | 0.1 (≈ 0.232 µM) | 0.78 (≈ 1.81 µM) | 0.05 (≈ 0.116 µM) | 0.2 (≈ 0.464 µM) | 0.1 (≈ 0.232 µM) | 6.2 (≈ 14.4 µM) | 0.1 (≈ 0.232 µM) | 0.1 (≈ 0.232 µM) | 0.1 (≈ 0.232 µM) | 0.2 (≈ 0.464 µM) | 0.05 (≈ 0.116 µM) | 0.05 (≈ 0.116 µM) | 0.2 (≈ 0.464 µM) | CCC1C[C@H](N)CN1c1cc2c(cc1F)c(=O)c(C(=O)O)cn2-c1ccc(F)cc1F (stereo partly specified) | 0.8 | 2.4 | 2.4 | ED50 (Mus musculus [27]): 9.6 mg/kg

Source: ChEMBL document CHEMBL1124182, “Design, synthesis, and properties of (4S)-7-(4-amino-2-substituted-pyrrolidin-1-yl)quinolone-3-carboxylic acids” (J Med Chem, 1988)
